The values below come from paper PMC3485666 (British Journal of Pharmacology, 2012).

Experiment [1] has as its system S1P1 receptors. To be noted: ref Piali et al., 2011; cited from earlier work.
For experiment [2], the target named is GIRK channels in human atrial myocytes (Homo sapiens, UniProt P21453). The experiment can be described thus: Electrophysiological recordings of GIRK current in human atrial myocytes. It counts as cell-based. To be noted: S1P versus BAF312.
Experiment [3] deals with myc-tagged human S1P1 receptors (Homo sapiens, UniProt P21453). Nature of the experiment: Agonist-mediated internalization of S1P1 receptors in CHO cells by flow cytometry. It counts as cell-based. To be noted: 1 µM, mean ± SD. (In general: A flow cytometer gives signals particle by particle.)
myc-tagged human S1P1 receptors, sequence (P21453 whole entry): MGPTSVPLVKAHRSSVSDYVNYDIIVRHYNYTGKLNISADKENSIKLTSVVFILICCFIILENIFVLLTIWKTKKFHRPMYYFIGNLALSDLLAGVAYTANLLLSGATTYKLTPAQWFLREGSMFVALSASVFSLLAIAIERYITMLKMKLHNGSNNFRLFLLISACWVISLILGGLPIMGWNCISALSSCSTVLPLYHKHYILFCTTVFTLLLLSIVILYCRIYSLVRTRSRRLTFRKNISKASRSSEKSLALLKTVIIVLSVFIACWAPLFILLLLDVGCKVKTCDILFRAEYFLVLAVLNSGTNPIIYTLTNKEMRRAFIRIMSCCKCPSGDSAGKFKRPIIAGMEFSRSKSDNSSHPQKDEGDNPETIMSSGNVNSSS

GIRK channels in human atrial myocytes, sequence (P21453 whole entry): as above
GIRK channels in human atrial myocytes, sequence (P48549 whole entry partner): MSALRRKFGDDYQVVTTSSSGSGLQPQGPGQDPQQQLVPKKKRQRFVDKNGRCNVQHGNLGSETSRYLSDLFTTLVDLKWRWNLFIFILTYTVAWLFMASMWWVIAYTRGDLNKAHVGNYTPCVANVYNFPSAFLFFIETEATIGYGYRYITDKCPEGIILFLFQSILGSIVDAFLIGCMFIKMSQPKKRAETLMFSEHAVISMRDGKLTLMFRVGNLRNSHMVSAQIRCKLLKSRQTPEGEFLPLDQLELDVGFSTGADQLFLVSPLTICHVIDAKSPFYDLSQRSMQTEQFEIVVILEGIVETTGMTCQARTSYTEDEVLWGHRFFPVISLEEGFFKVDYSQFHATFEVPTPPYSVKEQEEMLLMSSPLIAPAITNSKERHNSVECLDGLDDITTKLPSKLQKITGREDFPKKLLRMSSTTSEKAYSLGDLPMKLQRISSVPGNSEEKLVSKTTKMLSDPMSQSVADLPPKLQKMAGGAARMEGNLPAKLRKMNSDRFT
GIRK channels in human atrial myocytes, sequence (P48544 whole entry partner): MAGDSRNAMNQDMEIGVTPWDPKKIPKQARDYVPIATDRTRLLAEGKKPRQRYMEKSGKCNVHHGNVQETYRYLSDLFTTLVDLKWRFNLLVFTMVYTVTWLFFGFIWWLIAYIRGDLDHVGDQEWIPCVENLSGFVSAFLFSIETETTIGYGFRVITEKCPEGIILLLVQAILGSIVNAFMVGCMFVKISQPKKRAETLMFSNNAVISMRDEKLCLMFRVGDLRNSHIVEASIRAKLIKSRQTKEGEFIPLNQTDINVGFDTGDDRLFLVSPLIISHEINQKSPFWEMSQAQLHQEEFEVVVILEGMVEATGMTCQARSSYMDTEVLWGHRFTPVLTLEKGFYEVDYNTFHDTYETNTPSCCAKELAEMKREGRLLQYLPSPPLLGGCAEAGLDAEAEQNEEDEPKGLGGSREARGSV

Regarding `CCC/N=C1\S/C(=C\c2ccc(OC[C@H](O)CO)c(Cl)c2)C(=O)N1c1ccccc1C` [ponesimod], in experiment [1], the “Selectivity of S1P1 versus S1P3 (full agonist)” value is recorded as 20 fold and the “Selectivity of S1P1 versus S1P5 (partial agonist)” value is reported as 10 fold.
With `CCCCCCCCCCCCC/C=C/[C@@H](O)[C@@H](N)COP(=O)(O)O` [S1P, sphingosine 1-phosphate, reference compound], the “Potency in activating GIRK current relative to BAF312” value in experiment [2] is recorded as “approximately 8 times”. Also, the “S1P1 receptors localized intracellularly” value in experiment [3] (1 h incubation followed by 3 h without compound) is recorded as 9 ± 9%. In addition, in experiment [3] (1 h incubation), the “Internalization of S1P1 receptors” value is recorded as 48 ± 12%.
